Results as given in US20260139241A1, “METHOD FOR CONSTRUCTING SENESCENT CELLSAND METHOD FOR EVALUATING ANTI-SENESCENCE EFFICACY” (JAKA BIOTECH Co,.Ltd., priority 2022, published 2026).

Legend:
[1] = test system: endogenously senescent human primary fibroblasts (P4, P7, P9, P12 passage cells); assay: Anti-aging efficacy evaluation of VC on endogenously senescent (naturally senescent) cells, proliferation-promoting effect (ATP detection); assay type: cell-based; conditions: endogenous senescence, 10 ug/mL VC, 48 h
Excerpt: […]

[2] = test system: exogenously senescent human primary fibroblasts (UVA-P4, UVA-P7, UVA-P9 passage cells); assay: Anti-aging efficacy evaluation of VC on exogenously senescent (light aging) cells, proliferation-promoting effect (ATP detection); assay type: cell-based; conditions: exogenous senescence (light aging), 10 ug/mL VC, 48 h
Excerpt: […]

Question: What does the source list for O=C1O[C@H]([C@@H](O)CO)C(O)=C1O [VC]?
Answer: proliferation-promoting effect ([1]; early-stage senescent cells (P7)): relatively poor proliferation-promoting effect; proliferation-promoting effect ([1]; growth-stage cells (P4)): relatively significant proliferation-promoting effect; proliferation-promoting effect ([1]; late-stage senescent cells (P12)): basically no proliferation-promoting effect; proliferation-promoting effect ([1]; middle-stage senescent cells (P9)): basically no proliferation-promoting effect; proliferation-promoting effect ([2]; early-stage senescent cells (UVA-P4)): relatively significant proliferation-promoting effect; proliferation-promoting effect ([2]; late-stage senescent cells (UVA-P9)): no proliferation-promoting effect; proliferation-promoting effect ([2]; middle-stage senescent cells (UVA-P7)): relatively poor proliferation-promoting effect
